According to patent US12344603B2 (Genentech, Inc., priority 2020, dated 2025):
Structures can show the parent of a compound that is named as a salt.

Target: IRE1α (Homo sapiens (Human), UniProt O75460, D688N)
Assay: IRE1α TR-FRET competition binding assay (IRE1α HTRF)
Conditions: TR-FRET competition binding to kinase domain of IRE1α
How it was run: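 Kinase domain (0.25 nM) pre-bound to 2 nM Eu anti-His antibody for 1 h at 4° C in HEPES pH 7.5/MgCl2/Brij 35/DTT/gamma globulin buffer, then mixed with compounds and 2 nM Alexa 647 ATP-competitive probe. 1 h at room temperature; probe displacement read as TR-FRET (Ex 347 nm, Em 665/615 nm).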

Chain of IRE1α (O75460 547-977 D688N): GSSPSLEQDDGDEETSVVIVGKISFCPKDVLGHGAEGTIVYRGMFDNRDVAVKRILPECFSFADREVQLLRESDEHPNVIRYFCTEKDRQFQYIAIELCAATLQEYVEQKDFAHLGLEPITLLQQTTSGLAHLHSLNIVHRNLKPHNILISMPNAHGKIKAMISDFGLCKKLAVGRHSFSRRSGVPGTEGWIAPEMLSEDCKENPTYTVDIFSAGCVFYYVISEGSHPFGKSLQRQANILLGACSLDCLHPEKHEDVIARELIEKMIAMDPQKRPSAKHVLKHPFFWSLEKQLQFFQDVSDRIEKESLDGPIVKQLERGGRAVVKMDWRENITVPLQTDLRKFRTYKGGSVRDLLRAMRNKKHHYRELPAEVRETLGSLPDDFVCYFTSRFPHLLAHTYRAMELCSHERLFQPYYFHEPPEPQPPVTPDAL

| IC50 [nM] | SMILES |
| --- | --- |
| 0.25 | CC(C)n1c(=O)c(-c2ccc(NS(=O)(=O)CCC(F)(F)F)c(F)c2)cc2cnc(N[C@H]3CC[C@H](N4CCCC4)CC3)nc21 [Compound 199, 3,3,3-Trifluoro-N-(2-fluoro-4-(8-isopropyl-7-oxo-2-(((1,4-trans)-4-(pyrrolidin-1-yl)cyclohexyl)amino)-7,8-dihydropyrido[2,3-d]pyrimidin-6-yl)phenyl)propane-1-sulfonamide] |
| 20 | CC(C)n1c(=O)c(-c2ccc(NS(=O)(=O)CCC(F)(F)F)c(F)c2)cc2cnc(NC3CCN(C)CC3)nc21 [Compound 200, 3,3,3-Trifluoro-N-(2-fluoro-4-(8-isopropyl-2-((1-methylpiperidin-4-yl)amino)-7-oxo-7,8-dihydropyrido[2,3-d]pyrimidin-6-yl)phenyl)propane-1-sulfonamide formate] |
| 8.7 | CC(C)n1c(=O)c(-c2ccc(NS(=O)(=O)CCC(F)(F)F)c(F)c2)cc2cnc(NC3CCNCC3)nc21 [Compound 201, 3,3,3-Trifluoro-N-(2-fluoro-4-(8-isopropyl-7-oxo-2-(piperidin-4-ylamino)-7,8-dihydropyrido[2,3-d]pyrimidin-6-yl)phenyl)propane-1-sulfonamide] |
| 1 | CC(C)n1c(=O)c(-c2ccc(NS(=O)(=O)CCC(F)(F)F)c(F)c2)cc2cnc(N[C@H]3CC[C@H](N(C)CC4COC4)CC3)nc21 [Compound 204, 3,3,3-Trifluoro-N-(2-fluoro-4-(8-isopropyl-2-(((1,4-trans)-4-(methyl(oxetan-3-ylmethyl)amino)cyclohexyl)amino)-7-oxo-7,8-dihydropyrido[2,3-d]pyrimidin-6-yl)phenyl)propane-1-sulfonamide] |
| 0.14 | CCN(C)[C@H]1CC[C@H](Nc2ncc3cc(-c4ccc(NS(=O)(=O)CCC(F)(F)F)c(F)c4)c(=O)n(C(C)C)c3n2)CC1 [Compound 205, N-(4-(2-(((1,4-trans)-4-(Ethyl(methyl)amino)cyclohexyl)amino)-8-isopropyl-7-oxo-7,8-dihydropyrido[2,3-d]pyrimidin-6-yl)-2-fluorophenyl)-3,3,3-trifluoropropane-1-sulfonamide] |
| 0.17 | CC(C)n1c(=O)c(-c2ccc(NS(=O)(=O)CCC(F)(F)F)c(F)c2)cc2cnc(N[C@H]3CC[C@H](N(C)C4COC4)CC3)nc21 [Compound 206, 3,3,3-Trifluoro-N-(2-fluoro-4-(8-isopropyl-2-(((1,4-trans)-4-(methyl(oxetan-3-yl)amino)cyclohexyl)amino)-7-oxo-7,8-dihydropyrido[2,3-d]pyrimidin-6-yl)phenyl)propane-1-sulfonamide] |
| 0.21 | CC(C)n1c(=O)c(-c2ccc(NS(=O)(=O)CCC(F)(F)F)c(F)c2)cc2cnc(N[C@H]3CC[C@H](N(C)C4CC4)CC3)nc21 [Compound 207, N-(4-(2-(((1,4-trans)-4-(Cyclopropyl(methyl)amino)cyclohexyl)amino)-8-isopropyl-7-oxo-7,8-dihydropyrido[2,3-d]pyrimidin-6-yl)-2-fluorophenyl)-3,3,3-trifluoropropane-1-sulfonamide] |
| 1.2 | O=c1c(-c2ccc(NS(=O)(=O)Cc3ccccc3F)c(F)c2)cc2cnc(N[C@@H]3CNC[C@@H](F)C3)nc2n1CCO [Compound 208, N-[2-Fluoro-4-[2-[[(3S,5S)-5-fluoro-3-piperidyl]amino]-8-(2-hydroxyethyl)-7-oxo-pyrido[2,3-d]pyrimidin-6-yl]phenyl]-1-(2-fluorophenyl)methanesulfonamide] |
| 0.19 | CC(C)n1c(=O)c(-c2ccc(NS(=O)(=O)CCC(F)(F)F)c(F)c2)cc2cnc(N[C@H]3CC[C@H](N(C)CC4CCO4)CC3)nc21 (stereo partly drawn) [Compound 209, 3,3,3-Trifluoro-N-(2-fluoro-4-(8-isopropyl-2-(((1,4-trans)-4-(methyl(oxetan-2-ylmethyl)amino)cyclohexyl)amino)-7-oxo-7,8-dihydropyrido[2,3-d]pyrimidin-6-yl)phenyl)propane-1-sulfonamide] |
| 0.25 | COCCN(CCOC)[C@H]1CC[C@H](Nc2ncc3cc(-c4ccc(NS(=O)(=O)CCC(F)(F)F)c(F)c4)c(=O)n(C(C)C)c3n2)CC1 [Compound 210, N-(4-(2-(((1,4-trans)-4-(Bis(2-methoxyethyl)amino)cyclohexyl)amino)-8-isopropyl-7-oxo-7,8-dihydropyrido[2,3-d]pyrimidin-6-yl)-2-fluorophenyl)-3,3,3-trifluoropropane-1-sulfonamide] |

More lines, now with the values behind:

| SMILES | IC50 [nM] |
| --- | --- |
| CC(C)n1c(=O)c(-c2ccc(NS(=O)(=O)Cc3ccccc3)c(F)c2)nc2cnc(N[C@H]3CC[C@H](N(C)CCF)CC3)nc21 [Compound 183, N-(2-fluoro-4-(2-(((1r,4r)-4-((2-fluoroethyl)(methyl)amino)cyclohexyl)amino)-8-isopropyl-7-oxo-7,8-dihydropteridin-6-yl)phenyl)-1-phenylmethanesulfonamide] | 0.12 |
| CC(C)n1c(=O)c(-c2ccc(NS(=O)(=O)Cc3ccc(F)cc3)c(F)c2)nc2cnc(N[C@H]3CC[C@H](N(C)C)CC3)nc21 [Compound 184, N-(4-(2-(((1r,4r)-4-(dimethylamino)cyclohexyl)amino)-8-isopropyl-7-oxo-7,8-dihydropteridin-6-yl)-2-fluorophenyl)-1-(4-fluorophenyl)methanesulfonamide] | 0.25 |
| CC(C)n1c(=O)c(-c2cc(F)c(NS(=O)(=O)Cc3ccccc3)c(F)c2F)nc2cnc(N[C@@H]3CNC[C@@H](F)C3)nc21 [Compound 185, 1-Phenyl-N-(2,3,6-trifluoro-4-(2-(((3S,5S)-5-fluoropiperidin-3-yl)amino)-8-isopropyl-7-oxo-7,8-dihydropteridin-6-yl)phenyl)methanesulfonamide] | 0.17 |
| Cc1cc(NS(=O)(=O)CCC(F)(F)F)ncc1-c1nc2cnc(N[C@H]3CC[C@H](N(C)C)CC3)nc2n(C(C)C)c1=O [Compound 186, N-(5-(2-(((1r,4r)-4-(Dimethylamino)cyclohexyl)amino)-8-isopropyl-7-oxo-7,8-dihydropteridin-6-yl)-4-methylpyridin-2-yl)-3,3,3-trifluoropropane-1-sulfonamide] | 0.95 |
| CC(C)n1c(=O)c(-c2ccc(NS(=O)(=O)CCC(F)(F)F)nc2)nc2cnc(N[C@H]3CC[C@H](N(C)CCF)CC3)nc21 [Compound 187, 3,3,3-Trifluoro-N-(5-(2-(((1r,4r)-4-((2-fluoroethyl)(methyl)amino)cyclohexyl)amino)-8-isopropyl-7-oxo-7,8-dihydropteridin-6-yl)pyridin-2-yl)propane-1-sulfonamide] | 0.31 |
| CC(C)n1c(=O)c(-c2ccc(NS(=O)(=O)c3ccccc3Cl)nc2)nc2cnc(N[C@H]3CC[C@H](N(C)CCF)CC3)nc21 [Compound 188, 2-Chloro-N-(5-(2-(((1r,4r)-4-((2-fluoroethyl)(methyl)amino)cyclohexyl)amino)-8-isopropyl-7-oxo-7,8-dihydropteridin-6-yl)pyridin-2-yl)benzenesulfonamide hydrochloride] | 0.27 |
| CC(C)n1c(=O)c(-c2cc(F)c(NS(=O)(=O)CCC(F)(F)F)cc2F)nc2cnc(N[C@H]3CC[C@H](N(C)C)CC3)nc21 [Compound 189, N-(4-(2-(((1r,4r)-4-(dimethylamino)cyclohexyl)amino)-8-isopropyl-7-oxo-7,8-dihydropteridin-6-yl)-2,5-difluorophenyl)-3,3,3-trifluoropropane-1-sulfonamide] | 0.49 |
| CC(C)n1c(=O)c(-c2ccc(NS(=O)(=O)c3ccccc3C#N)c(F)c2)nc2cnc(N[C@H]3CC[C@H](N(C)C)CC3)nc21 [Compound 190, 2-Cyano-N-(4-(2-(((1r,4r)-4-(dimethylamino)cyclohexyl)amino)-8-isopropyl-7-oxo-7,8-dihydropteridin-6-yl)-2-fluorophenyl)benzenesulfonamide] | 0.18 |
| CC(C)n1c(=O)c(-c2ccc(NS(=O)(=O)c3cccnc3)c(F)c2)nc2cnc(N[C@H]3CC[C@H](N(C)C)CC3)nc21 [Compound 191, N-(4-(2-(((1r,4r)-4-(Dimethylamino)cyclohexyl)amino)-8-isopropyl-7-oxo-7,8-dihydropteridin-6-yl)-2-fluorophenyl)pyridine-3-sulfonamide hydrochloride] | 0.25 |
| Cc1nc(NS(=O)(=O)c2ccccc2C#N)ccc1-c1nc2cnc(N[C@H]3CC[C@H](N(C)CCF)CC3)nc2n(C(C)C)c1=O [Compound 194, 2-Cyano-N-(5-(2-(((1r,4r)-4-((2-fluoroethyl)(methyl)amino)cyclohexyl)amino)-8-isopropyl-7-oxo-7,8-dihydropteridin-6-yl)-6-methylpyridin-2-yl)benzenesulfonamide] | 0.31 |
| Cc1nc(NS(=O)(=O)c2ccccc2Cl)ccc1-c1nc2cnc(N[C@H]3CC[C@H](N(C)CCF)CC3)nc2n(C(C)C)c1=O [Compound 195, 2-Chloro-N-(5-(2-(((1r,4r)-4-((2-fluoroethyl)(methyl)amino)cyclohexyl)amino)-8-isopropyl-7-oxo-7,8-dihydropteridin-6-yl)-6-methylpyridin-2-yl)benzenesulfonamide] | 0.29 |
| CC(C)n1c(=O)c(-c2ccc(NS(=O)(=O)CCC(F)(F)F)c(F)c2F)cc2cnc(N[C@H]3CC[C@H](N(C)C)CC3)nc21 [Compound 197, N-(4-(2-(((1,4-trans)-4-(Dimethylamino)cyclohexyl)amino)-8-isopropyl-7-oxo-7,8-dihydropyrido[2,3-d]pyrimidin-6-yl)-2,3-difluorophenyl)-3,3,3-trifluoropropane-1-sulfonamide] | 0.26 |
| CC(C)n1c(=O)c(-c2ccc(NS(=O)(=O)CCC(F)(F)F)c(F)c2)cc2cnc(N[C@H]3CC[C@H](N4CCC4)CC3)nc21 [Compound 198, N-(4-(2-(((1,4-trans)-4-(Azetidin-1-yl)cyclohexyl)amino)-8-isopropyl-7-oxo-7,8-dihydropyrido[2,3-d]pyrimidin-6-yl)-2-fluorophenyl)-3,3,3-trifluoropropane-1-sulfonamide formate] | 0.41 |
